According to patent US20150087619A1, “METHOD OF MITIGATING VIRUS ASSOCIATED END-ORGAN DAMAGE” (CHIMERIX, INC., priority 2012, published 2015):
“And” between values parts separate entries of the source, which are not always exact repeats. Identical values can stand only once. “Also recorded” adds a separate entry of the source.

Key:
[1] = Pharmacokinetic analysis in pediatric and geriatric patients; assay type: in vivo, human
Protocol: This study population included five children. Pediatric patients received approximate doses of 1, 2, 3, or 4 mg/kg given once or twice weekly. […] Variability in PK parameters for this age group was high with respect to AUC, Cmax, and CL/F. In general, pediatric patients had lower plasma concentrations of HDP-CDV and CDV than adult healthy volunteers or patients on the same dose and schedule.
The study population also included 3 elderly adults. Geriatric patients received approximate doses of 1, 2, or 3 mg/kg given either once or twice weekly. Similar to pediatric patients, the medical condition of geriatric patients varied widely. Variability in PK parameters for this age group was high with respect to AUC, Cmax, and CL/F. In general, geriatric patients had higher plasma concentrations of HDP-CDV and CDV and lower CL/F than those observed in younger healthy volunteers or patients.
High CDV CL/fm values were also observed in children.

VZV = experiment: Virus spread in VZV-infected cultures; assay type: cell-based; conditions: 1 day of 20 μg/mL in the medium, given on Day −1, 0, 2, or 3
HHV-6(B) = experiment: In vitro antiviral activity in cell culture; assay type: cell-based
ADV [2] = experiment: HDP-CDV given to patients with viral infections, virology data
AdV [3] = experiment: In vitro antiviral activity in cell culture; assay type: cell-based
BKV [4] = experiment: Study HDP-CDV-201: serum creatinine as marker of renal function; conditions: for Creatinine level and renal function vs placebo: BKU+ at baseline (post-HSCT engraft)
BKV [5] = experiment: Study HDP-CDV-201: hematuria and BKV bladder events; assay type: in vivo, human
Protocol: A multicenter, randomized, double-blind, placebo-controlled, dose-escalation study of safety, tolerability, and ability of HDP-CDV to prevent or control […], and EBV infection and associated disorders was conducted. During enrollment of patients in the study, urine samples of candidate patients were routinely screened for BKV. Plasma was collected from patients who tested positive for BKV viruria in urine, and AdV, EBV and BKV level in the plasma was evaluated.

EBV = experiment: HDP-CDV given to patients with viral infections, virology data; conditions: 4 mg/kg BIW
[6] = patient 21 mo, 10 kg, 2 mg/kg BIW
[7] = patient, 67 kg, 2 mg/kg BIW, 4 mg/kg BIW
[8] = patient, 70 kg, 2 mg/kg every three days

CCCCCCCCCCCCCCCCOCCCOP(=O)(O)COC(CO)Cn1ccc(N)nc1=O (centres unmarked) [HDP-CDV]
CDV CL/fm values ([1]; children): High
CL/F vs younger healthy volunteers or patients ([1]; geriatric patients aged 66-68 years): lower
plasma concentrations of HDP-CDV and CDV vs younger healthy volunteers or patients ([1]; geriatric patients aged 66-68 years, approx. 1-3 mg/kg once or twice weekly): higher
CL/F values vs older subjects ([1]; patients <20 years of age): higher
reduction of virus spread (VZV): 2-3 Log10
EC50 (HHV-6(B)): 7 nM
ADV in stool on therapy (ADV [2]; patient 9 months, 6.58 kg, disseminated ADV, 3 mg/kg BIW): decreased by a similar amount.
stool ADV decline (ADV [2]; patient 16 mo, 10.4 kg, 4 mg/kg BIW, 3 weeks): ADV declined approximately 1 log10 over
Plasma ADV after 3 weeks of therapy (ADV [2]; patient 16 mo, 10.4 kg, 4 mg/kg BIW, from 809 c/ml): declined from 809 c/ml to undetectable
plasma ADV viremia after discontinuation (rebound) (ADV [2]; [6]): CDV when it rebounded to 100 copies/ml.
response in stool viral load (ADV [2]; [6]): load (<10-fold).
plasma ADV viremia on treatment (ADV [2]; patient 21 mo, 10 kg, 2 mg/kg BIW, baseline 100 copies/mL): became undetectable and stayed
decrease in plasma ADV (ADV [2]; patient, 14.1 kg, 4 mg/kg BIW): ADV2. A ~2 log10 decrease in plasma
ADV in blood 4 days after one dose (ADV [2]; patient, 19.1 kg, disseminated ADV, 60 mg BIW, from 51,000 c/mL): 100 c/mL in 4 days after one dose.
Adenovirus decline in plasma (ADV [2]; patient, 65 kg, 2 mg/kg BIW, to the limit of detection): ADV 5 (plasma). Adenovirus declined 2.6 log10
ADV viruria initial decline (ADV [2]; [7]): respond well initially with a 2.4 log10
ADV viruria rebound, distance from baseline (ADV [2]; [7]): decline only to rebound to within 0.7 log10
ADV plasma viremia decline (ADV [2]; patient, 67 kg, 2 mg/kg BIW, 4 mg/kg BIW, from 5.1 log10 to the limit of detection): declined 3.1 logs from 5.1 log10 to the limit
ADV viremia approximately two weeks after D/C (ADV [2]; [8]): HDP-CDV, ADV viremia rebounded.
Colon biopsy for ADV after therapy (ADV [2]; [8]): negative
ADV viremia decrease (ADV [2]; patient, 70 kg, 2 mg/kg every three days, after 3 weeks): > 3 log10
ADV viremia after 3 weeks (ADV [2]; patient, 70 kg, 2 mg/kg every three days, from 430,000 copies/mL): copies/mL to undetectable after 3 weeks
stool viral load (ADV [2]; patient, 81 kg, ADV pneumonia, 2 mg/kg BIW): modest decline in stool viral load.
Plasma ADV decline (ADV [2]; patient, 81 kg, ADV pneumonia, 2 mg/kg BIW, 10 days/4 doses): ADV 12. Plasma ADV declined 2.4 log10
ADV viremia decrease (ADV [2]; patient, 108 kg, 3 mg/kg first dose, 2 mg/kg BIW thereafter, after approximately 2-3 weeks): ~2 log10
ADV viremia after first two weeks (ADV [2]; patient, 4 mg/kg BIW, 3 doses, from 1.5 million): ADV viremia from 1.5 million to 98,000 c/ml
decrease in ADV viremia (ADV [2]; patient, 4 mg/kg BIW, first two weeks, 3 doses): This patient had a 1.2 log10 decrease in
EC50 (AdV [3]): 20 nM
rates of creatinine elevations or creatinine or heme+ urine, HDP-CDV vs placebo (BKV [4]; 105 subjects consistently BK negative): numerically similar
creatinine elevations >120 microM and =>25% increase over baseline (BKV [4]; BK negative throughout (7/78), placebo 7.4%): 9.0%
creatinine elevations (>120 last and >25% increase from baseline) OR 1+ heme, confirmed, new onset (BKV [4]; BK negative throughout (11/78), placebo 11.1%): 14.1%
end of treatment creatinine elevations >120 microM and =>25% over baseline (BKV [4]; BK positive during treatment (7/93), placebo 18.75%): 7.5%
creatinine elevations (>120 last and >25% increase from baseline) OR 1+ heme, confirmed, new onset (BKV [4]; BK positive during treatment (11/93), placebo 37.5%): 11.8%
difference in frequency between treatments, creatinine elevations or new onset heme+ urinalyses (BKV [4]; BK-positive subjects): 3.2 fold
Creatinine level and renal function vs placebo (BKV [4]; FIG. 2): prevented increase in Creatinine level and worsening of renal function
Creatinine level and renal function vs placebo (BKV [4]; FIG. 2, listed as HDP-cidofovir): reduces renal impairment
developed renal impairment (BKV [4]; BKU+ subjects (10/77), placebo 29%): 13%
end organ damage vs placebo (BKV [4]; BKU− at baseline, FIG. 2): did not impact the end organ damage
renal impairment (BKV [4]; BKU− subjects (6/94), placebo 6%): 6%
efficacy of twice weekly dosing (BKV [4]; Study HDP-CDV-201 retrospective analysis): equally or more effective
reduction of the incidence of renal dysfunction (creatinine elevations) vs placebo (BKV [4]; subjects BK viruric during the treatment period): 2.5 fold
developed Hem+ during the Study (BKV [5]; BK viruria positive (BKU+) at Baseline, 4 of 77, placebo 33%): 5%
clinical bladder adverse events related to BKV (BKV [5]; BKU+ subjects at Baseline (6/77), placebo 12.5-13%): 8% and 7.8%
Hem+ (BKV [5]; BKU− subjects): 4%
Hem+ vs placebo (BKV [5]; BKV viruria negative (BKU−) at baseline, FIG. 1): no significant difference
BKV associated adverse bladder events (BKV [5]; HDP-CDV treatment vs placebo): decreased frequency; also recorded: decreased the incidence; also recorded: beneficial effect
rate of confirmed blood positive urinalyses relative to placebo-treated subjects (BKV [5]; HDP-CDV- compared to placebo-treated): ⅙^th
Hematuria (Hem+) vs placebo (BKV [5]; HSCT patients with BKV at base line (BKU+), FIG. 1): prevented Hematuria; also recorded: reduces hematuria
BK-related bladder events (cystitis or blood in urine) (BKV [5]; all HDP-CDV subjects (6/171), placebo 5.1%): 3.5%
rate of blood positive urinalyses during the treatment period (BKV [5]; all HDP-CDV-treated subjects (8/171), placebo 15.2%): 4.7%
subjects with BK-related bladder AEs (BKV [5]; received 40 mg QW): 2
microscopic hematuria (BKV [5]; subjects shedding BKV in their urine): reduction in microscopic hematuria
BK-related bladder AEs (BKV [5]; subjects who received doses >100 mg QW (4/171)): 2.3%
difference between pooled HDP-CDV- and placebo-treated groups in rates of confirmed blood positive urinalyses (BKV [5]; subjects with BKV viruria during the treatment period): ~6 fold
rate of confirmed blood positive urinalyses (BKV [5]; subjects with BKV viruria during the treatment period (4/171), placebo 13.6%): 2.3%
rate of blood positive urinalyses (BKV [5]; subjects without BK viruria, placebo 1.7%): 2.4%
decrease in EBV levels in blood (EBV; patient 6 months, 6 kg, EBV associated PTLD, four days after starting): There was approximately a 5-fold decrease
blood EBV viral load after one month of therapy (EBV; patient 22 months, 13.8 kg, from >50,000,000 copies/mL): copies/mL to 100,000 copies/mL over one
replication of EBV as measured by plasma PCR (EBV; patient, 27 kg, EBV-associated PTLD): There is no evidence of on-going
